Assays:
[1] = biological target: Cytochrome P450 2C19 (Homo sapiens, UniProt P33261); assay: Inhibition of CYP2C19 in human liver microsomes using omeprazole as substrate pre-incubated for 30 mins followed by substrate addition and measured after 15 mins in presence of NADPH by LC/MS analysis; format: ADME, Microsome
[2] = biological target: Cytochrome P450 2C9 (Homo sapiens, UniProt P11712); assay: Inhibition of CYP2C9 in human liver microsomes using tolbutamide as substrate pre-incubated for 30 mins followed by substrate addition and measured after 15 mins in presence of NADPH by LC/MS analysis; format: ADME, Microsome
[3] = test system: HCT-116; assay: Antiproliferative activity against human HCT-116 cells assessed as inhibition of ERK1/2 phosphorylation incubated for 48 hrs by Western blotting analysis; format: functional, cell-based; conditions: dose 3-12 µM
[4] = Metabolic stability in Sprague-Dawley rat plasma assessed as compound remaining measured upto 3 hrs by LC-MS/MS analysis; format: ADME, cell-free

Chain of Cytochrome P450 2C9 (P11712 whole entry): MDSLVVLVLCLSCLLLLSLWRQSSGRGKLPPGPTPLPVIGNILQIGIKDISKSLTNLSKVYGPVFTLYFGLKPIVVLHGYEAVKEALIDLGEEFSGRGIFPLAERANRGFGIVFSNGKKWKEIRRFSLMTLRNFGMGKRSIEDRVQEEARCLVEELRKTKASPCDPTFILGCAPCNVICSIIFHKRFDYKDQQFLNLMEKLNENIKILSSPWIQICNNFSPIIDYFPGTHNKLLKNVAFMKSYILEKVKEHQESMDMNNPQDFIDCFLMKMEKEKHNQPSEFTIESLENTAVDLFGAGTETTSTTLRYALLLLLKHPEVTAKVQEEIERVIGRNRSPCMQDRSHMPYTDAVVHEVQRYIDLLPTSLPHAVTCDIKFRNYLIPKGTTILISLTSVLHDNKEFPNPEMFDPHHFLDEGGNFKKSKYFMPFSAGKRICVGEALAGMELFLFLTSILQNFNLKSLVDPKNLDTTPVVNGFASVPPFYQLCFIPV
Chain of Cytochrome P450 2C19 (P33261 whole entry): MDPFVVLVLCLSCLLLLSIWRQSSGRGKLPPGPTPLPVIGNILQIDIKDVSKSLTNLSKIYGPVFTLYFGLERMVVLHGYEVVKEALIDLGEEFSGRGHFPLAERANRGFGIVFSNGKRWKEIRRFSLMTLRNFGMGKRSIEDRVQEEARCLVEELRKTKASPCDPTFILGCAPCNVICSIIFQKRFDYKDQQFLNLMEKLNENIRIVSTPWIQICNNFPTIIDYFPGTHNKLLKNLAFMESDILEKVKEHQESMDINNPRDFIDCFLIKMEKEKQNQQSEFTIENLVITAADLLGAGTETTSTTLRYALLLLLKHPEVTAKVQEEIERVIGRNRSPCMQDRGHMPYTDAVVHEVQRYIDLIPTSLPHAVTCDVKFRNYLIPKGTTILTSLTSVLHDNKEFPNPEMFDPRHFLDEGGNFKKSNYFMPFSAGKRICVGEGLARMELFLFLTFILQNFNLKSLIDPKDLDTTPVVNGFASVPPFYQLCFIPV

- IC50 [1]: > 10 µM
- IC50 [2]: > 10 µM
- Stability [4]: Stable
SMILES: Nc1nc2cc(-c3ccc4ncc(N5C[C@@H]6OCCO[C@@H]6C5)nc4c3)ccc2o1
- Activity [3]: Dose-Dependent Effect
